Measurements: patent US20220387393A1, “METHODS FOR THE TREATMENT OF DYSMYELINATING/DEMYELINATING DISEASES” (Board of Regents, The University of Texas System, priority 2019, published 2022)

Columns and labels:
[1] = system: corpus callosum (CC) myelin of mouse brains; assay type: in vivo; conditions: for delayed-onset demyelination and myelin lipid reduction in the CC: 6 months, but not 4 months, after chemotherapy cessation
From the text: (§1) FIGS. 4A-4C. […] (FIG. 4A) Quantitative FluoroMyelin staining of the corpus callosum (CC) in 4-month and 6-month mouse brains treated with 5-FU, saline and/or KD3010. (FIG. 4B) Quantitative immunofluorescent staining of oligodendrocyte lineage marker Olig2 in the CC of 6-month mouse brains treated with 5-FU or saline.

[2] = system: corpus callosum (CC) myelin of mouse brains; conditions: 6 months after a clinically relevant dose for 1 week; cited from earlier work
Qk-iCKO mice = experiment: Qki depletion-induced demyelination in Qk-iCKO mice, daily oral administration; assay type: in vivo; conditions: for Qk-iCKO mice that lived for more than 100 days: 3 of 13 treated Qk-iCKO mice; for maximum survival duration increased / clinical scores / onset of neurological deficits / prolonged median survival times / body weights: Qk-iCKO mice; for maximum survival duration increased: compared to controls; for clinical scores / onset of neurological deficits / prolonged median survival times / body weights: oral administration, compared to vehicle; for body weights: 4 weeks after tamoxifen injection; for higher myelin lipid levels (FluoroMyelin) than vehicle-treated Qk-iCKO mice: corpus callosum; for higher myelin lipid levels (FluoroMyelin) than vehicle-treated Qk-iCKO mice / myelin sheaths (g-ratio) / more myelinated axons than vehicle-treated Qk-iCKO mice: after 5 weeks of treatment; for myelin sheaths (g-ratio) / more myelinated axons than vehicle-treated Qk-iCKO mice: optic nerves; for myelin sheaths (g-ratio): versus vehicle; for more myelinated axons than vehicle-treated Qk-iCKO mice: electron micrographs
From the text: FIGS. 2A-2J. […] In FIG. 2A, the four groups within each week represent, from left to right, Ctrl (Veh), iCKO (Veh), Ctrl (KD3010), and iCKO (KD3010). In FIG. 2D, the four groups within each week represent, from left to right, Ctrl (Veh), iCKO (Veh), Ctrl (Bex), and iCKO (Bex). In FIGS. 2B and 2E, the two lines that reach the X-axis represent the iCKO populations. (FIGS. 2C and 2F) Body weights of Qk-iCKO mice and controls receiving daily oral administration of KD3010, Bex, or Veh for 4 weeks after tamoxifen injection. (FIGS. 2G and 2H) Representative electron micrographs and quantification of the percentage of myelinated axons and g-ratio of the optic nerves of the experimental mice after 5 weeks of treatment. Scale bars, 500 nm. (FIGS. 2I and 2J) Representative images and quantification of FluoroMyelin level in the corpus callosum tissues of experimental mice after 5 weeks of treatment. Scale bars, 50 μm. Data are mean±s.d.; one-way ANOVA with Fisher's LSD correction. *P<0.05; **P<0.01; ***P<0.001; ****P<0.0001. ns, not significant.
Therefore, whether PPARβ-RXRα agonists could alleviate lipid defect-induced demyelination and its related symptoms was tested.

[3] = system: demyelination induced by 5-FU; experiment: 5-FU (chemotherapy)-induced demyelination in mice, treatment with agonist; assay type: in vivo; conditions: FluoroMyelin staining of corpus callosum, mouse brains treated with 5-FU
From the text: as §1

[4] = Dickey et al., 2016; cited from earlier work

SMILES | delayed-onset demyelination and myelin lipid reduction in the CC [1] | Qk-iCKO mice that lived for more than 100 days (Qk-iCKO mice) [%] | maximum survival duration increased (Qk-iCKO mice) [fold] | clinical scores (Qk-iCKO mice) | onset of neurological deficits (Qk-iCKO mice) | prolonged median survival times (Qk-iCKO mice) [fold] | body weights (Qk-iCKO mice) | higher myelin lipid levels (FluoroMyelin) than vehicle-treated Qk-iCKO mice (Qk-iCKO mice) [%] | myelin sheaths (g-ratio) (Qk-iCKO mice) | more myelinated axons than vehicle-treated Qk-iCKO mice (Qk-iCKO mice) [%] | further results
O=c1[nH]cc(F)c(=O)[nH]1 [5-FU, 5-fluorouracil] | exhibited delayed-onset demyelination and myelin lipid reduction | – | – | – | – | – | – | – | – | – | changes in myelin protein levels and oligodendrocyte numbers ([1]; CC of 6-month mouse brains): minimal changes; Qki in the oligodendrocytes in the lesions ([1]; Olig2/Qki double staining, CC of 6-month mouse brains): greatly reduced; delayed-onset demyelination (Han et al., 2008) [2]: developed delayed-onset demyelination
C[C@@H]1CN(c2ccc(OC(F)(F)F)cc2)C[C@H](C)N1S(=O)(=O)c1cccc2c1C[C@@H](C(=O)O)C2 [KD3010, (S)-4-[cis-2,6-dimethyl-4-(4-trifluoromethoxy-phenyl)piperazine-1-sulfonyl]-indan-2-carboxylic acid] | – | 23.1 | 3.72 | lowered | significantly delayed | 2.34 | increased | 119.4 | thicker | 115.3 | demyelination induced by 5-FU [3]: greatly alleviated; CNS permeability [4]: CNS-permeable
C=C(c1ccc(C(=O)O)cc1)c1cc2c(cc1C)C(C)(C)CCC2(C)C [bexarotene] | – | 23.1 | 4.03 | lowered | significantly delayed | 1.41 | increased | 89.5 | thicker | 73.7 | –
COc1cccc2c1C(=O)c1c(O)c3c(c(O)c1C2=O)C[C@@](O)(C(=O)CO)C[C@@H]3O[C@H]1C[C@H](N)[C@H](O)[C@H](C)O1 [doxorubicin] | exhibited delayed-onset demyelination and myelin lipid reduction | – | – | – | – | – | – | – | – | – | –
CN(Cc1cnc2nc(N)nc(N)c2n1)c1ccc(C(=O)N[C@@H](CCC(=O)O)C(=O)O)cc1 [methotrexate] | exhibited delayed-onset demyelination and myelin lipid reduction | – | – | – | – | – | – | – | – | – | –
